{
  "source": "patent US20100173833A1",
  "about": "“METHODS AND COMPOSITION FOR USE OF CYCLIC ANALOGUES OF HISTATIN” (priority 2007, published 2010)",
  "key": {"Bacillus subtilis": {"tested_on": "Bacillus subtilis", "test": "MIC, inhibition of cell growth", "assay_type": "cell-based", "settings": "lab strain; 1 hour 37° C. in 10 mM NaCl/50 mM MOPS, pH 7.2, then YPD 24 hours 37° C."}, "[1]": {"tested_on": "primary human foreskin epithelial cell culture", "settings": "various concentrations, 0, 36 and 72 hours (FIG. 3)", "method": "To determine range of non-toxic concentrations of DB2121, various concentration s of DB2121, 50 μM ketoconazole or DMSO as a control were separately added to primary human foreskin epithelial cell culture. At 0, 36 and 72 hours after addition, the epithelial cells were titriated off the culture plate and the viable cell number was determined. The experiment was performed in triplicate. At 72 hours, the foreskin epithelial cells exposed to the various compounds were imaged at 20× magnification using phase contrast microscopy. For cell counting, the epithelial cells were stained with trypan exclusion stain to monitor cell viability."}, "mice": {"tested_on": "mice", "test": "Tolerability in mice, intra-peritoneal injection", "assay_type": "in vivo", "method": "(§1) In addition, mice were able to withstand a concentration of 15 mg/kg of DB2121 when injected via an intra-peritoneal route. When injected into adult rats, a concentration of up to and including 1.5 mg/kg caused no harm when injected intra-venously."}, "adult rats": {"tested_on": "adult rats", "test": "Tolerability in adult rats, intra-venous injection", "assay_type": "in vivo", "method": "as §1"}, "[2]": {"tested_on": "Candida albicans (SC5314)", "settings": "lab strain; 1 hour 37° C. in 10 mM NaCl/50 mM MOPS, pH 7.2, then YPD broth 24 hours 30° C."}, "[3]": {"tested_on": "Candida albicans (isolate #3)", "settings": "clinical isolate #3; 1 hour 37° C. in 10 mM NaCl/50 mM MOPS, pH 7.2, then YPD 24 hours 30° C."}, "[4]": {"tested_on": "Candida albicans (isolate #4)", "settings": "clinical isolate #4; 1 hour 37° C. in 10 mM NaCl/50 mM MOPS, pH 7.2, then YPD 24 hours 30° C."}, "[5]": {"tested_on": "Candida albicans (isolate #5)", "settings": "clinical isolate #5; 1 hour 37° C. in 10 mM NaCl/50 mM MOPS, pH 7.2, then YPD 24 hours 30° C."}, "[6]": {"tested_on": "Candida albicans (isolate #11)", "settings": "clinical isolate #11; 1 hour 37° C. in 10 mM NaCl/50 mM MOPS, pH 7.2, then YPD 24 hours 30° C."}, "[7]": {"tested_on": "Candida albicans (isolate #28)", "settings": "clinical isolate #28; 1 hour 37° C. in 10 mM NaCl/50 mM MOPS, pH 7.2, then YPD 24 hours 30° C."}, "[8]": {"tested_on": "Candida albicans (isolate #77)", "settings": "clinical isolate #77; 1 hour 37° C. in 10 mM NaCl/50 mM MOPS, pH 7.2, then YPD 24 hours 30° C."}, "[9]": {"tested_on": "Candida albicans (isolate #98)", "settings": "clinical isolate #98; 1 hour 37° C. in 10 mM NaCl/50 mM MOPS, pH 7.2, then YPD 24 hours 30° C."}, "[10]": {"tested_on": "Candida albicans (isolate #99)", "settings": "clinical isolate #99; 1 hour 37° C. in 10 mM NaCl/50 mM MOPS, pH 7.2, then YPD 24 hours 30° C."}, "[11]": {"tested_on": "Candida albicans (isolate #AST97)", "settings": "clinical isolate AST97 (blood culture); 1 hour 37° C. in 10 mM NaCl/50 mM MOPS, pH 7.2, then YPD 24 hours 30° C."}, "[12]": {"tested_on": "Candida dubliniensis (isolate #10)", "settings": "clinical isolate #10; 1 hour 37° C. in 10 mM NaCl/50 mM MOPS, pH 7.2, then YPD 24 hours 30° C."}, "[13]": {"tested_on": "Candida tropicalis (isolate #93)", "settings": "clinical isolate #93; 1 hour 37° C. in 10 mM NaCl/50 mM MOPS, pH 7.2, then YPD 24 hours 30° C."}, "S. aureus (ATCC 29213)": {"tested_on": "S. aureus (ATCC 29213)", "settings": "lab strain ATCC 29213; 1 hour 37° C. in 10 mM NaCl/50 mM MOPS, pH 7.2, then YPD 24 hours 37° C."}, "[14]": {"tested_on": "S. haemolyticus (ATCC 29970)", "settings": "lab strain ATCC 29970; 1 hour 37° C. in 10 mM NaCl/50 mM MOPS, pH 7.2, then YPD 24 hours 37° C."}, "S. aurens (ATCC 43300)": {"tested_on": "S. aurens (ATCC 43300)", "settings": "lab strain ATCC 43300; 1 hour 37° C. in 10 mM NaCl/50 mM MOPS, pH 7.2, then YPD 24 hours 37° C."}, "S. aurens (ATCC 25923)": {"tested_on": "S. aurens (ATCC 25923)", "settings": "lab strain ATCC 25923; 1 hour 37° C. in 10 mM NaCl/50 mM MOPS, pH 7.2, then YPD 24 hours 37° C."}, "MRSAS. aureus (STRAIN 1)": {"tested_on": "MRSAS. aureus (STRAIN 1)", "settings": "clinical MRSA strain 1; 1 hour 37° C. in 10 mM NaCl/50 mM MOPS, pH 7.2, then YPD 24 hours 37° C."}, "MRSAS. aureus (STRAIN 2)": {"tested_on": "MRSAS. aureus (STRAIN 2)", "settings": "clinical MRSA strain 2; 1 hour 37° C. in 10 mM NaCl/50 mM MOPS, pH 7.2, then YPD 24 hours 37° C."}, "Candida albicans": {"tested_on": "Candida albicans", "settings": "concentration of cyclic Histatin analogue, alone or in combination; 1 hour 37° C. in 20 mM Tris-Cl, pH 7.2, 20 mM NaCl, then YPD 24 hours"}, "[15]": {"tested_on": "Primary human neonatal foreskin epithelial cells", "settings": "50 μM working (antimicrobial) concentration", "description": "At 18 and 36 hours following addition of compound, the foreskin epithelial cells were imaged using phase contract microscopy at 20× magnification. […] The experiments was repeated three times."}, "phosphorylated ERK 1, 2": {"tested_on": "phosphorylated ERK 1, 2", "settings": "50 μM, primary human foreskin epithelial cells", "description": "Toxicological studies of DB2121 in human cells were also undertaken. Primary human neonatal foreskin epithelial cells were used to examine DB2121 toxicity, using a method as described in Min et al. 2004. […] At 18 and 36 hours following addition of compound, the foreskin epithelial cells were imaged using phase contract microscopy at 20× magnification. (E) Immediately following the image analysis, proteins were extracted, separated on SDS-PAGE gels, Western blotted, and probed for Phosphorylated and non-phosphorylated ERK 1, 2 to monitor the proliferation of the foreskin keratinocytes. The experiments was repeated three times.\nThe primary cells were lysed and monitored for a marker of proliferation namely phosphorylated ERK 1, 2."}, "[16]": {"settings": "1 uM, 37° C., in vitro", "description": "The cyclic analogue was incubated in human saliva at a concentration of 1 uM and at a temperature of 37° C. in vitro. At various time points from 0 to 72 hours, 1.0 ul aliquots were taken and injected directly into a Micromass Quattro Micro mass spectrometer. Data was collected for a total of 3 minutes. The data was then processed using Mass Lynx 4.0 Analysis software."}},
  "note": "Bridge positions count the residues as written; N and C are the ends. Peptide text beside a SMILES is read from it.",
  "data": [
    {"smiles": "N=C(N)NCCC[C@H](NC(=O)[C@H](Cc1c[nH]cn1)NC(=O)[C@@H]1CSSC[C@H](NC(=O)[C@H](Cc2c[nH]cn2)NC(=O)[C@H](Cc2c[nH]cn2)NC(=O)[C@@H](N)CCCNC(=N)N)C(=O)N[C@@H](Cc2ccc(O)cc2)C(=O)N[C@@H](CCCCN)C(=O)N[C@@H](CCCNC(=N)N)C(=O)N[C@@H](CCCCN)C(=O)N[C@@H](Cc2ccccc2)C(=O)N[C@@H](Cc2c[nH]cn2)C(=O)N[C@@H](CCC(=O)O)C(=O)N[C@@H](CCCCN)C(=O)N[C@@H](Cc2c[nH]cn2)C(=O)N[C@@H](Cc2c[nH]cn2)C(=O)N1)C(=O)NCC(=O)N[C@@H](Cc1ccc(O)cc1)C(=O)O", "note": "[DB2121] (H-RHHCYKRKFHEKHHCHRGY-OH; disulfide 4-15)", "values": [
      {"measurement": "MIC", "setting": "Bacillus subtilis", "value": 23.9, "unit": "µM"},
      {"measurement": "toxicity in primary cultured cells (viable cell number)", "setting": "[1]", "value": "minimal toxicity"},
      {"measurement": "concentration withstood", "setting": "mice", "value": 15, "unit": "mg/kg"},
      {"measurement": "concentration that caused no harm", "setting": "adult rats", "value": "≤ 1.5", "unit": "mg/kg"},
      {"measurement": "MIC", "setting": "[2]", "value": 4.5, "unit": "µM"},
      {"measurement": "MIC", "setting": "[3]", "value": 8.0, "unit": "µM"},
      {"measurement": "MIC", "setting": "[4]", "value": 4.5, "unit": "µM"},
      {"measurement": "MIC", "setting": "[5]", "value": 4.5, "unit": "µM"},
      {"measurement": "MIC", "setting": "[6]", "value": 6.5, "unit": "µM"},
      {"measurement": "MIC", "setting": "[7]", "value": 4.5, "unit": "µM"},
      {"measurement": "MIC", "setting": "[8]", "value": 4.5, "unit": "µM"},
      {"measurement": "MIC", "setting": "[9]", "value": 4.5, "unit": "µM"},
      {"measurement": "MIC", "setting": "[10]", "value": 4.5, "unit": "µM"},
      {"measurement": "MIC", "setting": "[11]", "value": 7.8, "unit": "µM"},
      {"measurement": "MIC", "setting": "[12]", "value": 4.5, "unit": "µM"},
      {"measurement": "MIC", "setting": "[13]", "value": 4.5, "unit": "µM"},
      {"measurement": "MIC", "setting": "S. aureus (ATCC 29213)", "value": 12.5, "unit": "µM"},
      {"measurement": "MIC", "setting": "[14]", "value": 4.5, "unit": "µM"},
      {"measurement": "MIC", "setting": "S. aurens (ATCC 43300)", "value": 5.5, "unit": "µM"},
      {"measurement": "MIC", "setting": "S. aurens (ATCC 25923)", "value": 4.5, "unit": "µM"},
      {"measurement": "MIC", "setting": "MRSAS. aureus (STRAIN 1)", "value": 11.5, "unit": "µM"},
      {"measurement": "MIC", "setting": "MRSAS. aureus (STRAIN 2)", "value": 11.5, "unit": "µM"},
      {"measurement": "MIC (DB2121)", "setting": "Candida albicans", "value": 11, "unit": "µM"},
      {"measurement": "toxicity to human primary cells", "setting": "[15]", "value": "non-toxic"},
      {"measurement": "ERK 1, 2 activation compared to control", "setting": "phosphorylated ERK 1, 2", "value": "not suppressed"},
      {"measurement": "stable in human saliva", "setting": "[16]", "value": "at least 72 hours"}
    ]}
  ]
}
